From patent US20240268372A1, “Methods and Compositions for Extending Organ and Tissue Preservation” (The General Hospital Corporation, priority 2021, published 2024)
Values joined by “and” are separate entries in the source; they are usually repeats but may differ in a detail not shown here. Equal entries are not always repeated.

Assays:
whole rat livers [1] = assay: Optimized partial freezing of whole rat livers: ex vivo simulated transplantation (normothermic reperfusion with whole blood)
Description: (§1) Within this standardized protocol, we first compared GLY, EG, and PG as main permeating CPA using a freezing temperature of −10° C. and storage duration of 1 day (FIG. 37). Using PG as the CPA, we subsequently tested the effect of freezing temperature (−10° C. vs −15° C.) and storage duration (1 day vs 5 days) on liver viability after partial freezing using the same protocol (FIG. 38).
The Affinity Pixie Oxygenator is a clinical grade oxygenator that has graduated fiber bundle density technology and radial flow path that is designed to create a more uniform blood flow, enhance gas transfer, reduce pressure drops, and decrease prime volume. Moreover, it also contains a Balance® Biosurface that contains a hydrophilic polymer coating to reduce platelet adhesion and activation. This adaptation to the oxygenator is essential since recirculating whole blood during simulated transplantation may trigger coagulation and inflammatory events that are not representative of in vivo events and could skew observed outcomes.
(§2) Machine perfusion system: The perfusion system provides a continuous perfusion through the portal vein that is pressure, flow, and temperature controlled. The perfusates can be either recirculated or flushed with a single pass though the liver and perfusates can be changed without interrupting perfusion. The setup and operation of the perfusion system is described in detail elsewhere (see, e.g., ref. 15). There were two oxygenators used in this study, including the Radnoti (Cat #130144) and Affinity Pixie Oxygenator (Cat #BBP241). Due to the flexibility and low cost of the Radnoti oxygenator, it was first used for initial optimization and characterization studies, including determining the effect of permeating CPAs (GLY vs EG vs PG; FIG. 37), temperature (−10 vs −15° C., FIG. 38) storage duration (1 vs 5 days, FIG. 38), and warm ischemic injury.
Preconditioning during SNMP: Directly after procurement the livers were perfused with 250 ml of SNMP preloading solution (see Table 7 for composition of all solutions). The perfusion temperature was set at 21° C. and perfusion was initiated at 5 ml/min. […] Next, the livers were perfused for 30 additional minutes to allow for cellular uptake of 3-O-methyl-D-glucose (3-OMG).
Preloading of CPAs during HMP: The SNMP preloading solution was gradually switched to HMP preloading solution in […] increments, each with 10% decreasing and 10% increasing volumetric fractions of SNMP and HMP preloading solution, respectively. During this switch, the perfusion temperature was lowered to 4° C., and flows were adjusted to a maximum perfusion pressure of 3 mmHg. Dependent on the flowrate, the solution switch took 10-15 minutes. The HMP preloading was continued for 30 additional minutes to ensure complete equilibration of the solution throughout the peripheral liver tissue.
This was done in 10 fractions of 10 ml, each with 10% decreasing and 10% increasing volumetric fractions of HMP preloading solution and storage solution, respectively. During this switch, the perfusion temperature was maintained at 4° C., and the flowrates were lowered to ensure a maximum perfusion pressure of 3 mmHg. The final 15 ml fraction of 100% storage solution was loaded at a fixed flowrate of 0.5 ml/min.
Partial freezing: After loading of the storage solution, the liver was placed in a bag with 50 ml fresh storage solution and suspended in a pre-cooled chiller (Engel, Schwertberg, Austria). Depending on the experimental condition the chiller temperature was pre-cooled to −10° C. or −15° C. and the liver stored for […] 5 days.

whole rat livers [2] = assay: Optimized partial freezing of whole rat livers: SNMP recovery after freezing; settings: −15° C., 5 days; at 3 h
Description: as §1
as §2, with “injury. Once the major aspects of the protocol were optimized and characterized, we used the clinical grade Affinity Pixie Oxygenator. […]” for “injury.”

[3] = clinical grade oxygenator, −15° C., 1 day
[4] = clinical grade oxygenator, −15° C., 1 day, at 2 h
[5] = clinical grade oxygenator, −15° C., 5 day
[6] = clinical grade oxygenator, −15° C., 5 day, at 2 h
[7] = −10° C., 1 day, at 2 h of simulated transplantation

For `CC(O)CO` (centres unmarked) [PG, propylene glycol], the lactate (whole rat livers [1]; 30 minutes warm ischemia prior to freezing at −10° C. for 1 day, at 2 h of simulated transplantation) was 6.37 ± 1.09 mM, the HSP70 in perfusate (whole rat livers [1]; clinical grade oxygenator, 1 day frozen vs Clinical Oxy. Controls) was “increase” and the “TNFα levels in perfusate” value (whole rat livers [1]; clinical grade oxygenator, across all groups) was “no changes”. The 8OHdG in perfusate (whole rat livers [1]; clinical grade oxygenator, frozen livers versus controls) was “significantly lower”, the “maximum ALT” value (whole rat livers [1]; [3]) was 722.00±155.74 U/L and the “maximum AST” value (whole rat livers [1]; [3]) was 958.67±278.50 U/L. The “potassium level at end of simulated transplantation” value (whole rat livers [1]; [3]) was 5.23 ± 0.252 mM, the bile production (whole rat livers [1]; [4]) was 0.67 ± 0.92 µL/g and the “liver weight gain during simulated transplantation” value (whole rat livers [1]; [4]) was 12.00±8.66%. The vascular resistance (whole rat livers [1]; [4]) was 0.004±0.002 mmHg*min*mL-i*g^−1, the “maximum ALT” value (whole rat livers [1]; [5]) was 886.67±241.80 U/L and the “maximum AST” value (whole rat livers [1]; [5]) was 1190.33±117.35 U/L. For the same compound, the “potassium level at end of simulated transplantation” value (whole rat livers [1]; [5]) was 5.167 ± 0.404 mM, the bile production (whole rat livers [1]; [6]) was 2.92 ± 3.74 µL/g and the vascular resistance (whole rat livers [1]; [6]) was 0.007±0.010 mmHg*min*mL-i*g^−1. The “tissue adenylate energy charge” value (whole rat livers [1]; clinical grade oxygenator, −15° C., 5 days) was 0.131±0.031, the “liver weight gain during simulated transplantation” value (whole rat livers [1]; clinical grade oxygenator, −15° C., 5 days, at 2 h) was 26.00±15.13% and the microscopic tissue structure (whole rat livers [1]; −10° C. and −15° C., 1 day) was “some disruption of the lobular architecture with intact portal triads and hepatocyte swelling”. For the same compound, the “bile production during simulated transplantation” value (whole rat livers [1]; −10° C., 1 day) was “did produce bile”, the “lactate clearance after first hour of simulated transplantation” value (whole rat livers [1]; −10° C., 1 day) was “cleared lactate” and the “microscopic tissue structure (H&E, blinded pathologist)” value (whole rat livers [1]; −10° C., 1 day) was “favorable to modest results”. The AST levels (whole rat livers [1]; −10° C., 1 day, at 1 h) was 567±172 U/L, the oxygen uptake during simulated transplantation (whole rat livers [1]; −10° C., 1 day, at 1 h) was 36.9 ± 2.34 µL O2/min/g and the oxygen uptake during simulated transplantation (whole rat livers [1]; −10° C., 1 day, at 2 h) was 38.2 ± 3.66 µL O2/min/g. The “vascular resistance during simulated transplantation” value (whole rat livers [1]; −10° C., 1 day, at 2 h) was 0.019±0.011 mmHg*min*mL^−1*g^−1, the “weight gain during simulated transplantation” value (whole rat livers [1]; −10° C., 1 day, at 2 h) was 4.00±9.20% and the AST levels (whole rat livers [1]; [7]) was 979±520 U/L and 979±521 U/L. The portal lactate concentration (whole rat livers [1]; [7]) was 2.95 ± 1.73 mM, the “total cumulative bile volume” value (whole rat livers [1]; [7]) was 3.56 ± 4.02 µL/g and the “lactate clearance during simulated transplantation” value (whole rat livers [1]; −15° C., 1 and 5 days) was “no lactate clearance was observed”. The “bile production during simulated transplantation” value (whole rat livers [1]; −15° C., 1 day) was 6.11 ± 4.69 µL/g, the “tissue adenylate energy charge” value (whole rat livers [1]; −15° C., 1 day) was 0.061±0.019 and the AST levels (whole rat livers [1]; −15° C., 1 day, at 1 h) was 1283±224 U/L. For the same compound, the oxygen uptake during simulated transplantation (whole rat livers [1]; −15° C., 1 day, at 1 h) was 23.5 ± 4.68 µL O2/min/g, the AST levels (whole rat livers [1]; −15° C., 1 day, at 2 h) was 1995±530 U/L and the “lactate level at end of simulated transplantation” value (whole rat livers [1]; −15° C., 1 day, at 2 h) was 5.21 ± 2.67 mM. For the same compound, the “maximum ALT” value (whole rat livers [1]; −15° C., 1 day, at 2 h) was 2335±597 U/L, the maximum potassium (whole rat livers [1]; −15° C., 1 day, at 2 h) was 5.05 ± 0.48 mM and the oxygen uptake during simulated transplantation (whole rat livers [1]; −15° C., 1 day, at 2 h) was 24.9 ± 2.38 µL O2/min/g. The “vascular resistance during simulated transplantation” value (whole rat livers [1]; −15° C., 1 day, at 2 h) was 0.021±0.010 mmHg*min*mL^−1*g^−1 and 0.011±0.004 mmHg*min*mL^−1*g^−1, the “bile production during simulated transplantation” value (whole rat livers [1]; −15° C., 5 days) was 3.32 ± 2.43 µL/g and the microscopic tissue structure (whole rat livers [1]; −15° C., 5 days) was “moderate to marked loss of LSECs”. The “tissue adenylate energy charge” value (whole rat livers [1]; −15° C., 5 days) was 0.062±0.029, the “lactate level at end of simulated transplantation” value (whole rat livers [1]; −15° C., 5 days, at 2 h) was 5.73 ± 1.29 mM and the “maximum ALT” value (whole rat livers [1]; −15° C., 5 days, at 2 h) was 2316±242 U/L. For the same compound, the maximum potassium (whole rat livers [1]; −15° C., 5 days, at 2 h) was 4.95 ± 0.48 mM, the oxygen uptake during simulated transplantation (whole rat livers [1]; −15° C., 5 days, at 2 h) was 25.4 ± 9.78 µL O2/min/g and the “vascular resistance during simulated transplantation” value (whole rat livers [1]; −15° C., 5 days, at 2 h) was 0.021±0.021 mmHg*min*mL^−1*g^−1. The “weight gain during simulated transplantation” value (whole rat livers [1]; −15° C., 5 days, at 2 h) was 30.25±5.56% and the “weight gain during SNMP recovery after freezing” value (whole rat livers [2]) was 40.00±4.32%.
